# Key:
# [1] = target: T1, GABAA receptor subtype α1β2γ2 (Homo sapiens, UniProt P14867+P47870); test: Patch clamp THDOC enhancement of GABA response, α1β2γ2; assay type: cell-based; conditions: 1 μM steroid + THDOC
# T1 construct: expressed in transfected cells
# Excerpt: (§1) In these tests the protocol was optimized to be like the physiological conditions in the synaptic cleft.
# Preparation of cell lines: HEK-293 cells permanently transfected with the human α1-β2-γ2L, α2-β3-γ2S, α3-ββ3-γ2L, α4-β3-δ or α5-β3-γ2L GABAA-receptor subtypes were used. The cell lines permanently expressing a functional human GABAA-receptor was made in following steps. The human GABAA-receptor subunits e.g. α1 (308-1727 NM_000806), β2 (214-1679 NM_000813), γ2L (290-1785 NM_198904), α2, β3, γ2S, α3, α4, δ and α5 including introduced Kozac sequences just before the start codons were subcloned into mammalian expression vectors containing Geneticin, Hygromycin B, and Zeocin resistance, respectively. A HEK-293 cell line stably expressing the three GABAA-receptor subunits was produced by transfection of the subunits, one at a time. The transfection was followed by selection with the appropriate antibiotics, cell separation with the use of subunit specific antibodies and production of single cell colonies. Produced cell lines were analysed with immunocytochemistry for the three GABAA-receptor subunits, followed by selection of a suitable cell line showing, for the GABAA-receptor normal and good reactivity in a patch-clamp analysis (see below) towards GABA and the GAMS THDOC. […]
# GABAA receptor = conditions: table 3 in WO 09/142594; cited from earlier work
# [2] = target: T2, human α3-β3-γ2L GABAA-receptor subtype (Homo sapiens, UniProt P28472+P34903); test: Patch clamp (Dynaflow) GABA-mediated current response, HEK-293 cells, α3β3γ2L; assay type: cell-based; conditions: 1 μM steroid; essentially as in Example 2
# T2 construct: expressed in transfected cells
# Excerpt: as §1
# (§2) Preparation of cell lines: HEK-293 cells permanently transfected with the human α1-β2-γ2L, α2-β3-γ2S, α3-ββ3-γ2L, α4-β3-δ or α5-β3-γ2L GABAA-receptor subtypes were used. The cell lines permanently expressing a functional human GABAA-receptor was made in following steps. The human GABAA-receptor subunits e.g. α1 (308-1727 NM_000806), β2 (214-1679 NM_000813), γ2L (290-1785 NM_198904), α2, β3, γ2S, α3, α4, δ and α5 including introduced Kozac sequences just before the start codons were subcloned into mammalian expression vectors containing Geneticin, Hygromycin B, and Zeocin resistance, respectively. A HEK-293 cell line stably expressing the three GABAA-receptor subunits was produced by transfection of the subunits, one at a time. The transfection was followed by selection with the appropriate antibiotics, cell separation with the use of subunit specific antibodies and production of single cell colonies. Produced cell lines were analysed with immunocytochemistry for the three GABAA-receptor subunits, followed by selection of a suitable cell line showing, for the GABAA-receptor normal and good reactivity in a patch-clamp analysis (see below) towards GABA and the GAMS THDOC.
# (§3) Cell culture: HEK-293 cells, permanently transfected with human α1-β2-γ2L, α2-β3-γ2S, α3-β3-γ2L, α4-β3-δ and α5-β3-γ2L GABAA-receptor subtypes, were seeded at a density of 3×10^4/25 cm^2 in cell binding culture flask. The transfected cells were used for patch-clamp experiments 3 days after seeding. When using the cells for patch-clamp experiments the cells were washed twice with oxygen-bubbled EC-solution (see below). About 5 mL EC was then added and the cells were kept in the incubator for about 15 minutes. After 15 minutes the cells came loose from the bottom of the flask and were separated by carefully sucking couple of times with a Pasteur pipette.
# (§4) Dynaflow™ system: Dynaflow™ system with resolve chips was used for all patch-clamp experiments. The resolve chips is made of non-sticky materials. The channel width is 150 μm and the height 50 μm. The well volume is 280 μL. Run time at the flow rate of 26 μL/min is […]. The pump settings were as follow: Omnifix 2 ml syringe with inner diameter of 9.65 mm was used. The syringe pump flow rate of chip was 26 μL/min.
# (§5) Steroids and GABA: GABA was dissolved in EC-solution by ultrasound for about 40 minutes to the concentration of 10 mM in room temperature. All steroids were dissolved to the concentration of 6 mM in dimethyl sulfoxide (DMSO). The DMSO concentration was 0.1% in all end-solutions, including the wash solution (EC) and the solution with GABA alone. End-solutions are the solutions added into the wells of the chip.
# (§6) Electrophysiology: Patch electrodes were pulled from 1.5 mm O.D., 0.86 mm I.D. borosilicate capillary glass without filament. […] The intracellular solution (IC) comprised of (in mM): 140 Cs-gluconate, 3.0 NaCl, 1.2 MgCl2, 1.0 EGTA, 10 HEPES. pH was adjusted to 7.2 with CsOH. The extracellular (EC) solution used during recordings contained (in mM): 137 NaCl, 5.0 KCl, 1.0 CaCl2), 1.2 MgCl2, 10 HEPES, 10 glucose. pH was adjusted with NaOH to 7.4. After compensating for the liquid junction potential, a steady holding potential of −17 mV was used in all experiments. In physiological conditions the HEK-293 has a resting potential at −40 mV and a low concentration of chloride ions inside the cell. By using the holding potential of-17 mV and the intracellular solution with low chloride ion concentration the chloride ions flux into the cell when the receptors are activated. All experiments were performed at room temperature (21 to 23° C.). The following standard protocol was used for all experiments.
# (§7) GABA applications: By using the Dynaflow equipment it is possible to study transfected HEK-293 during almost physiological conditions.
# Male Wistar rats [3] = test: Weight increase in growing male rats, experiment 1 (IV injections, 5 days); assay type: in vivo, rat; conditions: 2 mg/kg IV
# Protocol: (§8) Animals: Male Wistar rats were kept in group cages, with three animals per cage, from delivery and throughout the period of experiments. The individual animals were marked so that they could be identified throughout the experiment duration. The animals weight an average of 152 g upon arrival. A reversed light dark (12:12h) cycle was used with the dark period onset at 0600 hrs. Altogether fifty-six (56) rats were used in this study (experiment 1+2). The animals were delivered from the breeder Taconic (Denmark). The study protocol was approved by the Regional Ethics Committee of Umeå University, Sweden.
# (§9) Feeding: Standard chow and water were available ad libitum. A reversed 12-h dark-light cycle with lights off at 10.00 am and lights on at 22.00 pm was used. For identification, the rats were marked with a permanent marker on the tail. To avoid the endogenous allopregnanolone fluctuations that are present in the oestrous cycle of female rats, male rats were chosen (Frye et al. 2000). The animals were allowed to acclimatize for at least 3 weeks before start of the experimental sessions. During this period, the rats were repeatedly handled and allowed habituation to the new environment and to all new procedures, to minimize stress during the experiments.
# (§10) After 14 days of triad housing, handling and injection training of the animals, the animals were treated for 5 days with IV injections in experiment 1 and 10 days with a daily subcutaneous injection of the assigned treatment in experiment 2 (Tables 4 and 5). The injections were given at 08.00 every morning. The animals were weighed the day before onset of the treatment and at the last day of injection i.e. on the 5th or 10th day of treatment. Weight was taken at the time of the last injection. […] The results are shown in FIG. 3 (experiment 1) and FIG. 4 (experiment 2), respectively.
# [4] = target: T3, human GABAA-receptor subtype α3β3γ2L (Homo sapiens, UniProt P28472+P34903); test: Patch clamp (Dynaflow) THDOC enhancement of GABA response, HEK-293 cells, α3β3γ2L; assay type: cell-based; conditions: 1 μM steroid + THDOC
# T3 construct: expressed in transfected cells
# Excerpt: as §1, §2, §3, §4, §5, §6, §7
# [5] = target: T4, human α1-β2-γ2L GABAA-receptor subtype (Homo sapiens, UniProt P14867+P47870); test: Patch clamp (Dynaflow) GABA-mediated current response, HEK-293 cells, α1β2γ2L; assay type: cell-based; conditions: 1 μM steroid; essentially as in Example 2
# T4 construct: expressed in transfected cells
# Excerpt: as §1, §2, §3, §4, §5
# as §6, with “By using the holding potential of-17 mV and the intracellular solution with low chloride ion concentration the chloride ions flux into the cell when the receptors are activated. All experiments were performed at room temperature (21 to 23° C.). The following standard protocol was used for all experiments.” left out
# Male Wistar rats [6] = test: Weight increase in growing male rats, experiment 2 (daily subcutaneous injection, 10 days); assay type: in vivo, rat; conditions: for reduced weight versus the E+P control rats / reduction in weight compared to vehicle: 10 days
# Protocol: as §8, §9, §10
# [7] = 1 mg/kg s.c. + 5 mg/kg progesterone + 10 μg/kg 17β-estradiol
# [8] = 5 mg/kg s.c. + 5 mg/kg progesterone + 10 μg/kg 17β-estradiol
# T4 sequence (P14867 28-456): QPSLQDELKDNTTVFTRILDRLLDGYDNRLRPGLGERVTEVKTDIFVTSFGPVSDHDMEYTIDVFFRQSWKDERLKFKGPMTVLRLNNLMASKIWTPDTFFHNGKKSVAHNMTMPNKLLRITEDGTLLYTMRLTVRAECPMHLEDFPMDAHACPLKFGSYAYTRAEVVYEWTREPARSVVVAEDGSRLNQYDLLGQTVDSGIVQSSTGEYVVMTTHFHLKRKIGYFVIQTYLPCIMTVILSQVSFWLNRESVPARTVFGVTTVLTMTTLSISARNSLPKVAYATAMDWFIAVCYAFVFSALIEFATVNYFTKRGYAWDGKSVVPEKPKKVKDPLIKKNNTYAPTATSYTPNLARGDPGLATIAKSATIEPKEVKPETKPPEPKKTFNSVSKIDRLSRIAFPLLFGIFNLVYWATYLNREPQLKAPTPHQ
# T4 sequence (P47870 26-474 isoform P47870-1 limits assumed): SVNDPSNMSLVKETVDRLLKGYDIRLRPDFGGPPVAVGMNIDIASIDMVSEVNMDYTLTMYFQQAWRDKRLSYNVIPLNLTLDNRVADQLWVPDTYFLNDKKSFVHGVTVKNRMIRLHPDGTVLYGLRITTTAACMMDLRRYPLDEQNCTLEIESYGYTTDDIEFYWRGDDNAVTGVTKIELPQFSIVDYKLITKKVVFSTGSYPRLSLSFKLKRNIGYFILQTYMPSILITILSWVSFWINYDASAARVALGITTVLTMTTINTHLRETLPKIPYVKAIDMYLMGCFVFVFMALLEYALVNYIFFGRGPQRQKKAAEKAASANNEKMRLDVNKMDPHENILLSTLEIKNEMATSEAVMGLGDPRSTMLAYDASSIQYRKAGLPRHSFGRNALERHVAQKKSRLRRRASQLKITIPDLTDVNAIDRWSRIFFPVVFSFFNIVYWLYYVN
# T4 sequence (P18507 40-475 partner): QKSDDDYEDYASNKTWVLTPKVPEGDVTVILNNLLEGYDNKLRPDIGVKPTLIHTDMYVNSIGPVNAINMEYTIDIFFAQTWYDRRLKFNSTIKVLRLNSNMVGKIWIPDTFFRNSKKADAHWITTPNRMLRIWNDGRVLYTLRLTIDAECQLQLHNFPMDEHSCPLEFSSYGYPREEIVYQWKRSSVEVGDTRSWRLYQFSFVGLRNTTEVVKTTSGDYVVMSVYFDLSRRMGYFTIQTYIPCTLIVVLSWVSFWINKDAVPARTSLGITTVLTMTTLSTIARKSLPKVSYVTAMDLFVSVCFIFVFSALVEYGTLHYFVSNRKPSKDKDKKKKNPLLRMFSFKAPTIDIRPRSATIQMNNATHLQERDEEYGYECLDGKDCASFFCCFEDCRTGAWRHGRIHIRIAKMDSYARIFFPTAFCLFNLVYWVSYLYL
# T1 sequence (P14867 28-456): as the sequence (P14867 28-456) above
# T1 sequence (P47870 26-474 isoform P47870-1 limits assumed): as the sequence (P47870 26-474 isoform P47870-1 limits assumed) above
# T1 sequence (P18507 40-475 partner): as the sequence (P18507 40-475 partner) above
# T3 sequence (P34903 29-492): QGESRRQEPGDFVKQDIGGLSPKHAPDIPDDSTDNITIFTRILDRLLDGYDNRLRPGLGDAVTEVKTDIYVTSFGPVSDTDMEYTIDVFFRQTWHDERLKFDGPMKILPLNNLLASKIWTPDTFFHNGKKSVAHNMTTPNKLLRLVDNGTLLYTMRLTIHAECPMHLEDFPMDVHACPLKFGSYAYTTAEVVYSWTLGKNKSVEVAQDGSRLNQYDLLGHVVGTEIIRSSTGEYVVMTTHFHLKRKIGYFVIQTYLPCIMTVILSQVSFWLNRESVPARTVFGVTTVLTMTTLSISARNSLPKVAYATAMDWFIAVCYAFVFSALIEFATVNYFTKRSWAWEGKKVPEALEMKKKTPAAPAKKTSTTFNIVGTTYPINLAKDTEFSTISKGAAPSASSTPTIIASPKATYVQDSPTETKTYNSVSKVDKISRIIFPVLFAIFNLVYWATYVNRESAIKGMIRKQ
# T3 sequence (P28472 26-473): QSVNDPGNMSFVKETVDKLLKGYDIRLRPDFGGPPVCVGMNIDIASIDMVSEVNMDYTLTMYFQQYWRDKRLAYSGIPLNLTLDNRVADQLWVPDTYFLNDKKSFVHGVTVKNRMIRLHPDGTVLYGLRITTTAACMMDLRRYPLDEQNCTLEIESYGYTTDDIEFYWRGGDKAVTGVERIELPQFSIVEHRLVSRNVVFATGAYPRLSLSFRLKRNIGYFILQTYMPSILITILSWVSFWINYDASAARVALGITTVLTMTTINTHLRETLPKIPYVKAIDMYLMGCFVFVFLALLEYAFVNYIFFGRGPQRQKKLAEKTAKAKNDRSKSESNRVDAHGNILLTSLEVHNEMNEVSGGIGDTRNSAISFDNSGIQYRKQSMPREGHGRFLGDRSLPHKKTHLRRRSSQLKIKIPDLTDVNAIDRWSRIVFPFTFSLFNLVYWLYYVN
# T3 sequence (P18507 40-475 partner): as the sequence (P18507 40-475 partner) above
# T2 sequence (P34903 29-492): as the sequence (P34903 29-492) above
# T2 sequence (P28472 26-473): as the sequence (P28472 26-473) above
# T2 sequence (P18507 40-475 partner): as the sequence (P18507 40-475 partner) above
structure (smiles),measurement,setting,value
C#C[C@]1(O)CC[C@@]2(C)[C@@H](CC[C@@H]3[C@@H]2CC[C@]2(C)C(=O)CC[C@@H]32)C1 [3α-ethynyl-3β-hydroxy-5α-androstan-17-one],"Antagonism of 100 nM THDOC-enhancement, α1β2γ2",[1],No effect
same,effect as a GAMSA or GAMS,GABAA receptor,no effect as a GAMSA or GAMS
same,"Effect against GABAs agonistic effect, a3β3γ2",[2],"−46 ± 1.3%,"
same,increase in weight versus vehicle treated groups,Male Wistar rats [3],significantly lower
same,Mean weight increase since arrival. g,"Male Wistar rats [3]; in 10% β-cyclodextrine 1 ml/kg, first block of Table 6",97.43 g
same,Mean weight increase since arrival. g,Male Wistar rats [3]; second block of Table 6 (increase from start of treatment),11.86 g
same,"Antagonism of 100 nM THDOC-enhancement, a3β3γ2",[4],"−166 + 19.9%,"
same,"Effect against GABAs agonistic effect, α1β2γ2",[5],−1.9 ± 2.4%
same,reduced weight versus the E+P control rats,Male Wistar rats [6]; [7],-23.9 ± 4.4 g
same,reduction in weight compared to vehicle,Male Wistar rats [6]; [7],-33 ± 4.4 g
same,reduced weight versus the E+P control rats,Male Wistar rats [6]; [8],-20.4 ± 5.2 g
same,reduction in weight compared to vehicle,Male Wistar rats [6]; [8],-29.6 ± 5.2 g
same,weight difference after 10 days of treatment compared to vehicle,Male Wistar rats [6]; 10 days s.c. treatment,over 20%
